The subject of this assay is IRF3. The assay is described as follows: IRF3 activation assay in THP-1 Dual Cells (QUANTI-Blue reporter). Type of assay: cell-based. Particulars: Homo sapiens, THP1-Dual, 24 hours incubation, absorbance at 620-655 nm. Here is the method:
THP-1 Dual Cells (Invivogen) were maintained in RPMI1640 medium with addition of 10% FBS, 100 μg/mL zeocin, 10 μg/mL blasticidin. Cells were added in a 96-well flat bottom assay plate at 100,000 per well in 100 μL complete RPMI medium. Test compounds were prepared by serial dilution in complete RPMI medium and 100 μL test compounds were transferred to each corresponding well. The assay plate was incubated at 37° C., 5% CO2 for 24 hours. After the overnight incubation, 20 μL of the culture supernatants were collected, followed by addition of 180 μL of QUANTI-Blue (Invivogen) to assess IRF3 activity. The amount of IRF3 activation was assessed by reading the absorbance at 620-655 nm with a microplate reader 2 hours later. The culture supernatant from the untreated THP-1 cells was used as the negative control. To determine the NF-κB activation, another 20 μL of culture supernatant were transferred to a 96-well white plate, followed by addition of 50 μL of Quanti-Luc™ assay solution (Invivogen). The amount of NF-κB activation induced by the test compounds were determined by the luminescence above the untreated control. EC50 determination was performed by fitting the curve of percent control activity versus the log of the compound concentration using the GraphPad Prism 6.0 software.

In general, EC50 refers to the midpoint of the concentration-response curve. Low values mean a more potent agent, high ones a less potent agent.

For the compound `CCn1nc(C)cc1-c1ncc2c3cc(C(N)=O)cc(OCCCO)c3n(C/C=C/Cn3c4nc(-c5cc(C)nn5CC)ncc4c4cc(C(N)=O)cc(OCCCO)c43)c2n1` [Example 2, (E)-9,9′-(but-2-ene-1,4-diyl)bis(2-(1-ethyl-3-methyl-1H-pyrazol-5-yl)-8-(3-hydroxypropoxy)-9H-pyrimido[4,5-b]indole-6-carboxamide)], the EC50 was no more than 100 nM.

Compound `CCn1nc(C)cc1-c1ncc2c3cc(C(N)=O)cc(OC)c3n(C/C=C/Cn3c4nc(-c5cc(C)nn5CC)ncc4c4cc(C(N)=O)cc(OC)c43)c2n1` [Example 1, (E)-9,9′-(but-2-ene-1,4-diyl)bis(2-(1-ethyl-3-methyl-1H-pyrazol-5-yl)-8-methoxy-9H-pyrimido[4,5-b]indole-6-carboxamide)] registered a half-maximal effective concentration (EC50) of no more than 100 nM.

The values are drawn from patent publication US11008344B2, “Tricyclic heteroaryl compounds as STING activators” (Incyte Corporation, priority 2018, dated 2021).
